# Tested on: adult T. muris
# Assay: Ex vivo adult T. muris automated motility assay (primary/secondary screen at 100 μM and dose-response)
# Parameters: species or system Trichuris muris
# Conditions: 100 μM; for COMBINED_SCREEN_ACTIVITY: combined primary and secondary screen minus log fold change in movement, adult T. muris; for PRIMARY_SCREEN_MINUS_LOG_FOLD_CHANGE_MOVEMENT: primary screen
# Experimental: Severe combined immune deficiency (SCID) mice were bred in the Biological Services Facility at the University of Manchester. Both male and female SCID mice were infected with a high dose of 200 infective embryonated T. muris eggs via oral gavage. At day 35 post-infection, groups of 5 mice were killed and their […] colons removed. Guts were opened longitudinally, washed with pre-warmed Roswell Park Memorial Institute (RPMI) 1640 media supplemented with penicillin (500U/ml) and streptomycin (500μg/ml) and adult T. muris worms gently removed using fine forceps. Worms removed from SCID mice were maintained in RPMI-1640 media supplemented with penicillin (500U/ml) and streptomycin (500μg/ml) at approximately 37°C and studied on the same day. Using fine forceps, individual live worms were placed into 96 well plates containing 75μl of RPMI-1640 medium supplemented with penicillin (500U/ml) and streptomycin (500μg/ml) plus 1% final concentration of DMSO or compound dissolved in DMSO. In the primary screen the test compound concentration was 100μM. Plates were then incubated at 37°C, 5% CO2, and motility was analysed after 24 hours. Worm movement was quantified using an automated motility assay. This system gives an estimate of worm movement in each well by thresholding and quantifying pixel intensity variance over time. An earlier version of this system has been previously described. One adult T. muris worm was used per well, with one well per compound in each replicate of the primary screen. The primary screen was repeated each week for a period of four weeks giving four independent biological replicates from separate parasite batches for each compound. Dose-response curves were calculated with the four factor log-logistic model using the R package drc. The primary screen was carried out at 100μM final concentration. Assay plates were assigned unique IDs and statistical analysis was performed without knowledge of compound identities using R scripts. Once hit wells were identified, well/plate positions were mapped to compound identities using DataWarrior [28]. […] Compounds identified as having encouraging activity from the DMSO solution samples were then resynthesized for confirmatory testing.
SMILES,COMBINED_SCREEN_ACTIVITY,PRIMARY_SCREEN_MINUS_LOG_FOLD_CHANGE_MOVEMENT (adult T. muris motility),"SECONDARY_SCREEN_MINUS_LOG_FOLD_CHANGE_MOVEMENT (secondary screen, adult T. muris motility)"
CN1C(=O)COCc2cc(Br)ccc21 [Compound 6],-1.038,-1.038,
Cc1ccc(CN2C(=O)COCc3ccccc32)cc1 [Compound 7],-0.007203,-0.007203,
Cc1ccccc1-c1cccc2c1COCC(=O)N2C [Compound 8],-0.9498,-0.9498,
CN1C(=O)COCc2c(-c3cccc(O)c3)cccc21 [Compound 9],-1.134,-1.134,
CN1C(=O)COCc2cc(-c3cccc(C#N)c3)ccc21 [Compound 10],-1.704,-1.704,
Cc1ccc(-c2cccc3c2COCC(=O)N3C)cc1C [Compound 11],-0.1315,-0.1315,
CC(C)N1C(=O)COCc2ccc(-c3ccccc3)cc21 [Compound 12],1.691,1.691,
CC(C)N1C(=O)COCc2ccc(-c3cccnc3)cc21 [Compound 13],-0.8665,-0.8665,
COc1ccc(CN2C(=O)COCc3ccccc32)cc1 [Compound 14],-1.77,-1.77,
CN1C(=O)COCc2c(-c3cccc(CO)c3)cccc21 [Compound 15],-0.7825,-0.7825,
CCCN1C(=O)COCc2cc(Br)ccc21 [Compound 16],-2.129,-2.129,
CC(C)N1C(=O)COCc2cc(Br)ccc21 [Compound 17],-0.6442,-0.6442,
CCCN1C(=O)COCc2ccc(Br)cc21 [Compound 18],-1.618,-1.618,
CC(C)N1C(=O)COCc2ccc(Br)cc21 [Compound 19],-1.507,-1.507,
CC(C)N1C(=O)COCc2ccc(-c3cnn(C)c3)cc21 [Compound 20],0.06851,0.06851,
O=C1COCc2ccccc2N1Cc1ccccc1Cl [Compound 21],-1.647,-1.647,
CN1C(=O)COCc2c(-c3ccc(Cl)cc3)cccc21 [Compound 22],-0.8438,-0.8438,
O=C1COCc2ccccc2N1Cc1cc(F)cc(F)c1 [Compound 23],-1.442,-1.442,
O=C1COCc2ccc(-c3ccccc3)cc2N1CC1CC1 [Compound 24],7.227,7.227,
O=C1COCc2ccc(-c3cccnc3)cc2N1CC1CC1 [Compound 25],-1.503,-1.503,

SMILES,COMBINED_SCREEN_ACTIVITY,PRIMARY_SCREEN_MINUS_LOG_FOLD_CHANGE_MOVEMENT (adult T. muris motility),"SECONDARY_SCREEN_MINUS_LOG_FOLD_CHANGE_MOVEMENT (secondary screen, adult T. muris motility)"
O=C1COCc2cc(Br)ccc2N1CC1CC1 [Compound 26],-0.588,-0.588,
CN1C(=O)COCc2c(-c3ccc4c(c3)OCO4)cccc21 [Compound 27],-0.9234,-0.9234,
COCCN1C(=O)COCc2ccc(-c3ccccc3)cc21 [Compound 28],-0.7597,-1.727,0.2076
CC(C)N1C(=O)COCc2ccc(-c3cccc(F)c3)cc21 [Compound 29],1.463,1.463,
COCCN1C(=O)COCc2cc(Br)ccc21 [Compound 30],0.3958,0.3958,
COCCN1C(=O)COCc2ccc(Br)cc21 [Compound 31],-1.486,-1.486,
COc1cc(F)ccc1-c1cccc2c1COCC(=O)N2C [Compound 32],-1.894,-1.894,
CN1C(=O)COCc2c(-c3ccc(F)c(Cl)c3)cccc21 [Compound 33],1.432,1.432,
CN1C(=O)COCc2c(-c3cc(F)cc(Cl)c3)cccc21 [Compound 34],-1.392,-1.392,
O=C1COCc2ccc(-c3cccc(F)c3)cc2N1CC1CC1 [Compound 35],10.5493,10.5493,
COCCN1C(=O)COCc2ccc(-c3ccccc3C)cc21 [Compound 36],-1.658,-1.658,
COCCN1C(=O)COCc2ccc(-c3cccc(O)c3)cc21 [Compound 37],-1.788,-1.788,
COCCN1C(=O)COCc2ccc(-c3cccc(F)c3)cc21 [Compound 38],-1.255,-1.255,
CC(C)N1C(=O)COCc2ccc(-c3cc(F)cc(F)c3)cc21 [Compound 39],3.736,3.736,
N#Cc1cccc(-c2ccc3c(c2)N(CC2CC2)C(=O)COC3)c1 [Compound 40],-0.6738,-0.6738,
O=C1COCc2ccc(-c3cccc(CO)c3)cc2N1CC1CC1 [Compound 41],-1.108,-1.108,
COc1ccccc1-c1ccc2c(c1)N(CC1CC1)C(=O)COC2 [Compound 42],1.209,1.209,
COc1ccc(-c2ccc3c(c2)N(CC2CC2)C(=O)COC3)cc1 [Compound 43],3.877,3.877,
COc1ccc(-c2ccc3c(c2)N(CC2CC2)C(=O)COC3)cn1 [Compound 44],-1.021,-1.021,
COCCN1C(=O)COCc2ccc(-c3ccccc3OC)cc21 [Compound 45],-1.409,-1.409,
